Experimental data published in ChEMBL document CHEMBL1157179, “A CoMSIA study on the adenosine kinase inhibition of pyrrolo[2,3-d]pyrimidine nucleoside analogues” (Bioorg Med Chem, 2008).

Molecular target: Adenosine kinase (Homo sapiens) (UniProt P55263)
Sequence (P55263 2-362 limits assumed): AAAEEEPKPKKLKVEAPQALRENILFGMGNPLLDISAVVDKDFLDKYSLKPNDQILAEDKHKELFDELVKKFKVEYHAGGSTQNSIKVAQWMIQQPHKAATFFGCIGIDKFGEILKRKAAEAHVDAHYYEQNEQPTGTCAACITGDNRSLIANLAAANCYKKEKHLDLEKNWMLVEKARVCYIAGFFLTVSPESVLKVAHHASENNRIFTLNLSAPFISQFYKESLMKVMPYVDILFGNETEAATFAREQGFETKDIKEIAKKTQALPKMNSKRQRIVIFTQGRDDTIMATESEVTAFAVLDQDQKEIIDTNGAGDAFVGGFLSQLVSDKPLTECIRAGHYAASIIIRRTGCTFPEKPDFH

Row | SMILES | log(10'3/IC50)
1 | CSc1ncnc2c1c(I)cn2[C@@H]1O[C@H](C)[C@@H](O)[C@H]1O | 4.35
2 | NC[C@H]1O[C@@H](n2cc(I)c3c(N)ncnc32)[C@H](O)[C@@H]1O | 6.22
3 | N#Cc1cn([C@@H]2O[C@H](CO)[C@@H](O)[C@H]2O)c2ncnc(N)c12 | 3.51
4 | C[C@H]1O[C@@H](n2cc(I)c3c(SCc4ccccc4)ncnc32)[C@H](O)[C@@H]1O | 3
5 | [N-]=[N+]=NC[C@H]1O[C@@H](n2cc(Br)c3c(Cl)ncnc32)[C@H](O)[C@@H]1O | 4
6 | [N-]=[N+]=NC[C@H]1O[C@@H](n2cc(I)c3c(Cl)ncnc32)[C@H](O)[C@@H]1O | 5.05
7 | CC[C@H]1O[C@@H](n2cc(I)c3c(N)ncnc32)[C@H](O)[C@@H]1O | 4.22
8 | NC[C@H]1O[C@@H](n2cc(Br)c3c(N)ncnc32)[C@H](O)[C@@H]1O | 6.7
9 | C[C@H]1O[C@@H](n2cc(I)c3c(S)ncnc32)[C@H](O)[C@@H]1O | 2.19
10 | Nc1ncnc2c1c(Cl)cn2[C@@H]1O[C@H](CO)[C@@H](O)[C@H]1O | 3.68
11 | Nc1ncnc2c1c(Br)cn2[C@@H]1O[C@H](CO)[C@@H](O)[C@H]1O | 3.92
12 | C=CCSc1ncnc2c1c(I)cn2[C@@H]1O[C@H](C)[C@@H](O)[C@H]1O | 2.55
13 | CNc1ncnc2c1c(I)cn2[C@@H]1O[C@H](CO)[C@@H](O)[C@H]1O | 2.92
14 | Cc1cn([C@@H]2O[C@H](C)[C@@H](O)[C@H]2O)c2ncnc(Cl)c12 | 3.27
15 | C=C[C@H]1O[C@@H](n2cc(I)c3c(N)ncnc32)[C@H](O)[C@@H]1O | 4
16 | CSc1cn([C@@H]2O[C@H](C)[C@@H](O)[C@H]2O)c2ncnc(N)c12 | 2.87
17 | C[C@H]1O[C@@H](n2cc(I)c3c(Cl)ncnc32)[C@H](O)[C@@H]1O | 5.52
18 | C[C@H]1O[C@@H](n2cc(C#N)c3c(N)ncnc32)[C@H](O)[C@@H]1O | 3.51

Further lines, results first:

Row | log(10'3/IC50) | SMILES
19 | 2.92 | COC[C@H]1O[C@@H](n2cc(I)c3c(N)ncnc32)[C@H](O)[C@@H]1O
20 | 4.3 | C[C@H]1O[C@@H](n2cc(Br)c3c(Cl)ncnc32)[C@H](O)[C@@H]1O
21 | 1.89 | NC[C@H]1O[C@@H](n2ccc3c(N)ncnc32)[C@H](O)[C@@H]1O
22 | 3.3 | CC[C@H]1O[C@@H](n2cc(Br)c3c(N)ncnc32)[C@H](O)[C@@H]1O
23 | 2.7 | C[C@H]1O[C@@H](n2cc(I)c3c(SCc4ccc([N+](=O)[O-])cc4)ncnc32)[C@H](O)[C@@H]1O
24 | 4.62 | OC[C@H]1O[C@@H](n2cc(I)c3c(Cl)ncnc32)[C@H](O)[C@@H]1O
25 | 4.46 | [N-]=[N+]=NC[C@H]1O[C@@H](n2cc(I)c3c(N)ncnc32)[C@H](O)[C@@H]1O
26 | 7 | NC[C@H]1O[C@@H](n2cc(I)c3c(Cl)ncnc32)[C@H](O)[C@@H]1O
27 | 3 | CCCCSc1ncnc2c1c(I)cn2[C@@H]1O[C@H](C)[C@@H](O)[C@H]1O
28 | 4.2 | [N-]=[N+]=NC[C@H]1O[C@@H](n2cc(Br)c3c(N)ncnc32)[C@H](O)[C@@H]1O
29 | 4.15 | CSc1cn([C@@H]2O[C@H](C)[C@@H](O)[C@H]2O)c2ncnc(Cl)c12
